Experimental data taken from US20130064955A1, “NATURAL SWEETENED COMPOSITIONS AND METHODS FOR PREPARING THE SAME” (priority 2011, published 2013).

What was measured:
human sense of taste [1] = experiment: Determination of sweetness recognition threshold concentration by trained taste tester; type: in vivo; conditions: in water at room temperature; for minimal effective concentration: Homo sapiens, read-out: Sweetness recognition threshold Level
Method: The term “sweetness recognition threshold concentration,” as generally used herein, is the lowest known concentration of a sweet compound that is perceivable by the human sense of taste. The sweetness recognition threshold level is specific for a particular compound, and varies based on temperature, matrix, ingredients and/or flavor system. The sweetness recognition threshold concentrations measurements and 5% sucrose equivalence measurements described herein were determined in water at room temperature.
A sip (approximately 2-5 mL) of control sample, including but not limited to water, was tasted and swallowed by a trained taste tester. After allowing a 15-25 second interval to pass, a second sip of the control is tasted and swallowed. The taste properties of the control are determined and recorded by the trained taste tester. An unknown sample is then tasted and swallowed in the same manner, allowing a 15-25 second interval between the two sips. Preferably no more than ten additives are tested per day to avoid taste fatigue. Each sample was taken at least 1.5 hours following eating or drinking The sweetness recognition thresholds concentration of 21 steviol glycosides were determined in this manner, and are shown in Table 1.

human sense of taste [2] = experiment: Sugar-like taste quality enhancement of Stevia sweeteners by steviol glycoside additives, taste test by trained individual; type: in vivo; conditions: for Taste change of Stevia Sweetener REBA (303 ppm) with Steviol Glycoside Additive / Taste change of Stevia Sweetener JSS (380 ppm) with Steviol Glycoside Additive / Taste change of Stevia Sweetener REBD (303 ppm) with Steviol Glycoside Additive: additive at or below its sweetness recognition threshold concentration, 5% sucrose equivalence, water, room temperature; for Taste change of Stevia Sweetener REBA (303 ppm) with Steviol Glycoside Additive: 97% pure rebaudioside A 303 ppm; for Taste change of Stevia Sweetener REBD (303 ppm) with Steviol Glycoside Additive: rebaudioside D 303 ppm;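 for Taste change of Stevia Sweetener JSS (380 ppm) with Steviol Glycoside Additive: code −B means less bitterness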
Method: A steviol glycoside is added in an amount at or below sweetness recognition threshold concentration to a solution of water and a Stevia sweetener. The solution is maintained at room temperature. Each sample is taste tested by a trained individual, as described in Example 1, in duplicate. Preferably no more than ten steviol glycosides are tested per day to avoid taste fatigue. Each sample was taken at least 1.5 hours following eating or drinking
The Stevia sweeteners used in this study were 97% pure rebaudioside A, JSS, and rebaudioside D.
The steviol glycosides were used in at or below sweetness recognition threshold concentrations. […]

Compound	minimal effective concentration (human sense of taste [1])	Taste change of Stevia Sweetener REBA (303 ppm) with Steviol Glycoside Additive (human sense of taste [2])	Taste change of Stevia Sweetener JSS (380 ppm) with Steviol Glycoside Additive (human sense of taste [2])	Taste change of Stevia Sweetener REBD (303 ppm) with Steviol Glycoside Additive (human sense of taste [2])	sugar-like taste quality enhancement effect (human sense of taste [2]; mostly in 5% SE rebaudioside A, compared with compound 1)	Sweetness recognition threshold Level (human sense of taste [1])
CC1=C[C@@]23CC[C@H]4[C@@](C)(CCC[C@@]4(C)C(=O)OC4OC(CO)C(O)C(O)C4O)[C@@H]2CC[C@]1(OC1OC(CO)C(O)C(OC2OC(CO)C(O)C(O)C2O)C1OC1OC(CO)C(O)C(O)C1O)C3 (stereo partly shown) [Compound 4]	25 µg/mL	N (N: no difference in presence or absence of steviol glycoside additive;)	N (N: no difference in presence or absence of steviol glycoside additive;)	N (N: no difference in presence or absence of steviol glycoside additive;)		
CC1=C[C@@]23CC[C@H]4[C@@](C)(CCC[C@@]4(C)C(=O)O)[C@@H]2CC[C@]1(OC1OC(CO)C(O)C(OC2OC(CO)C(O)C(O)C2O)C1OC1OC(CO)C(O)C(O)C1O)C3 (stereo partly shown) [Compound 2]	35 µg/mL	++, −SL, −B	DB (DB: Different pattern of bitterness;)	N(+), W	similar, but smaller positive sugar-like taste quality enhancement effect	
C=C1C[C@@]23CC[C@H]4[C@@](C)(CCC[C@@]4(C)C(=O)O[C@@H]4O[C@H](CO)[C@@H](O)[C@H](O)[C@H]4O)[C@@H]2CC[C@]1(O[C@@H]1O[C@H](CO)[C@@H](O)[C@H](O)[C@H]1O[C@@H]1O[C@@H](C)[C@H](O)[C@@H](O)[C@H]1O)C3 [Dulcoside A, dulcoside A]		N (N: no difference in presence or absence of steviol glycoside additive;)	N (N: no difference in presence or absence of steviol glycoside additive;)	N (N: no difference in presence or absence of steviol glycoside additive;)		50 ppm
